test system: not given; assay: not given; settings: not given

melting point [°C] | Structure (SMILES)
316 to 317 | CNc1nc(N)nc2cc(-c3ccccc3S(=O)(=O)NC)ccc12 [Example 126, N-methyl-2-(2-amino-4-methylamino-quinazolin-7-yl)-benzenesulfonamide]

target: T1, Human PTP1B (1-321) (Homo sapiens, UniProt P18031); assay: In Vitro Inhibition of PTP1B (PTPase assay); type: biochemical; settings: PTP1B inhibitory activity, procedures of Example 150
T1 construct: Human PTP1B (1-321) was cloned from a human cDNA library; made in house; host or cells: E. coli
T1 sequence (P18031 1-321): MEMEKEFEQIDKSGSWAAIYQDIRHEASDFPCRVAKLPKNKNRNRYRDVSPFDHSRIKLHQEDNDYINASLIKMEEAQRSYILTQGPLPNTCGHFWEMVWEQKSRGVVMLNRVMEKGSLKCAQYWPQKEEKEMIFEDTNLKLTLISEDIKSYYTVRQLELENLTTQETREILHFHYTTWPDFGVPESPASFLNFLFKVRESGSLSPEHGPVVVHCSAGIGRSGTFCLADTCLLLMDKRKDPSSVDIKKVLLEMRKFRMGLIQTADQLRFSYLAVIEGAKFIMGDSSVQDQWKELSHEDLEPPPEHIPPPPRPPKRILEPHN
Procedure: Human PTP1B (1-321) was cloned from a human cDNA library using conventional molecular biology techniques. The cDNA sequence was identical to the published human PTP1B sequence (Accession number M33689). The protein was expressed and purified from E. coli as described by Barford D. et. al J. Mol Biol (1994) 239, 726-730.
The measurement of PTPase activity was carried out using one of two methods:
The first method for the measurement of PTP1B inhibitory activity a tyrosine phosphorylated peptide based on the amino acid sequence of insulin receptor tyrosine autophosphorylation site 1146 (TRDI(pY)E) was used as substrate. The reaction conditions were as follows:
PTP1B (0.5-2 nM) was incubated with compound for 15 min in buffer containing 37.5 mM Bis-Tris buffer pH 6.2, 140 mMNaCl, 0.05% BSA and 2 mM DTT. The reaction was started by the addition of 50 μM substrate. After 20 min at room temperature (22-25° C.), the reaction was stopped with KOH and the amount of free phosphate measured using Malachite Green as previously described (Harder et al. 1994 Biochem J. 298; 395).
The second method was used for the measurement of general PTPase inhibitory activity across a panel of PTPases the substrate (6,8-difluoro-4-methylumbelliferyl phosphate (DiFMUP; from Molecular Probes) was used at the Km for each enzyme. The buffer conditions were identical as in the Malachite Green assay. The reaction was stopped with KOH. In this case the dephosphoryated product becomes fluorescent and the fluorescense read (Excitiation: […]/Emmission: 460 nM).

Structure (SMILES) | IC50 [nM]
CNc1nc(N)nc2cc(-c3ccccc3C)ccc12 [Example 6, N4-Methyl-7-o-tolyl-quinazoline-2,4-diamine] | 3150
CNc1nc(N)nc2cc(-c3ccccc3SC)ccc12 [Example 58, N4-Methyl-7-(2-methylsulfanyl-phenyl)-quinazoline-2,4-diamine] | 1010
CNc1nc(N)nc2cc(-c3c(OC)cccc3OC)ccc12 [Example 21, 7-(2,6-Dimethoxy-phenyl)-N4-methyl-quinazoline-2,4-diamine] | 3500
CNc1nc(N)nc2cc(-c3c(Cl)cccc3Cl)ccc12 [Example 24, 7-(2,6-Dichloro-phenyl)-N4-methyl-quinazoline-2,4-diamine] | 1110
Nc1nc(NCCO)c2ccc(-c3ccccc3C(F)(F)F)cc2n1 [Example 57, 2-[2-Amino-7-(2-trifluoromethyl-phenyl)-quinazolin-4-ylamino]-ethanol] | 3340
Nc1nc(NCCO)c2ccc(-c3ccccc3F)cc2n1 [Example 41, 2-[2-Amino-7-(2-fluoro-phenyl)-quinazolin-4-ylamino]-ethanol] | 19000
Cc1cccc(C)c1-c1ccc2c(NCCO)nc(N)nc2c1 [Example 36, 2-[2-Amino-7-(2,6-dimethyl-phenyl)-quinazolin-4-ylamino]-ethanol] | 3170
CCNc1nc(N)nc2cc(-c3c(C)cccc3C)ccc12 [Example 14, 7-(2,6-Dimethyl-phenyl)-N4-ethyl-quinazoline-2,4-diamine] | 2480
Cc1ccccc1-c1ccc2c(NCCO)nc(N)nc2c1 [Example 43, 2-(2-Amino-7-o-tolyl-quinazolin-4-ylamino)-ethanol] | 6020
CNc1nc(N)nc2cc(-c3c(C)cccc3C)ccc12 [Example 8, 7-(2,6-Dimethyl-phenyl)-N4-methyl-quinazoline-2,4-diamine] | 790
Cc1cccc(C)c1-c1ccc2c(N(C)C)nc(N)nc2c1 [Example 9, 7-(2,6-Dimethyl-phenyl)-N4,N4-dimethyl-quinazoline-2,4-diamine] | 14000

Continued, values first:

IC50 [nM] | Structure (SMILES)
1600 | CNc1nc(N)nc2cc(-c3ccccc3S(=O)(=O)N(C)C)ccc12 [Example 120, 2-(2-aAmino-4-methylamino-quinazolin-7-yl)-N,N-dimethyl-benzenesulfonamide]
1940 | CNc1nc(N)nc2cc(-c3ccccc3S(=O)(=O)NC)ccc12 [Example 126, N-methyl-2-(2-amino-4-methylamino-quinazolin-7-yl)-benzenesulfonamide]
4040 | CNc1nc(N)nc2cc(-c3ccc(F)cc3C)ccc12 [Example 69, 7-(4-Fluoro-2-methyl-phenyl)-N4-methyl-quinazoline-2,4-diamine]
1460 | CNc1nc(N)nc2cc(-c3c(C)cccc3Cl)ccc12 [Example 89, 7-(2-Chloro-6-methyl-phenyl)-N4-methyl-quinazoline-2,4-diamine]
1440 | CNc1nc(N)nc2cc(-c3ccccc3S(C)(=O)=O)ccc12 [Example 72, 7-(2-Methanesulfonyl-phenyl)-N4-methyl-quinazoline-2,4-diamine]
1890 | CCNS(=O)(=O)c1ccccc1-c1ccc2c(NC)nc(N)nc2c1 [Example 125]
2780 | CNc1nc(N)nc2cc(-c3ccccc3[S+](C)[O-])ccc12 (stereo not drawn) [Example 71, 7-(2-Methanesulfinyl-phenyl)-N4-methyl-quinazoline-2,4-diamine]
4180 | CSc1ccccc1-c1ccc2c(NCCO)nc(N)nc2c1 [Example 75, 2-[2-Amino-7-(2-methylsulfanyl-phenyl)-quinazolin-4-ylamino]-ethanol]
1390 | CCS(=O)(=O)c1ccccc1-c1ccc2c(NC)nc(N)nc2c1 [Example 82, 7-(2-Ethanesulfonyl-phenyl)-N4-methyl-quinazoline-2,4-diamine]
